Several values for one entry are separate records, joined by “and”; a condition that tells them apart may be missing. Identical values can stand only once.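 All cell lines were grown in 96-well plates and treated with compound for 48 hours. The concentration for 50% growth inhibition is given as GI50. TGI is the concentration that stops growth completely.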
Key:
Assay in all cases: NCI tumour cell line growth inhibition, 48 h
[1] = system: SK-MEL-2 melanoma
[2] = system: HCT-116 colon
[3] = system: HT29 colon
[4] = system: UO-31 renal
[5] = system: OVCAR-4 ovarian
[6] = system: OVCAR-8 ovarian
[7] = system: HCT-15 colon
[8] = system: ACHN renal
[9] = system: 786-0 renal
[10] = system: SF-295 CNS

SMILES | TGI [1] | TGI [2] | TGI [3] | TGI [4] | TGI [5] | TGI [6] | TGI [7] | GI50 [8] | TGI [8] | GI50 [9] | TGI [9] | TGI [10] | GI50 [1] | GI50 [2] | GI50 [3] | GI50 [4] | GI50 [5] | GI50 [6] | GI50 [7] | GI50 [10]
Nc1ncnc2c1nnn2C1OC(CO)C(O)C1O (stereo not given) | 1.74 µM | 10.5 µM | 21.9 µM | 6.02 µM | 8.48 µM | 8.97 µM | 20.6 µM | 0.141 µM | 8.84 µM | 0.38 µM | 14 µM | 7.59 µM | – | – | – | – | – | – | – | –
Brc1ccccc1C1SCc2nc3ccccc3n21 (stereo not given) | 32.5 µM | 26 µM | 60.9 µM | 22.6 µM | 75.9 µM | 57.1 µM | 25.4 µM | – | 81 µM | – | 29.4 µM | 82.9 µM | – | – | – | – | – | – | – | –
CC[C@H](Nc1ncnc2nc[nH]c12)c1oc2ccccc2c(=O)c1-c1cccc(F)c1 | 46.7 µM | > 100 µM | > 100 µM | 58 µM | > 100 µM | > 100 µM | > 100 µM | 21.6 µM | > 100 µM | 21.4 µM | > 100 µM | > 100 µM | 18.4 µM | 25.5 µM | 28.3 µM | 5.93 µM | 23.1 µM | 31.9 µM | 26.9 µM | 18.4 µM
CC(=O)OC1=CC(n2cc(F)c(=O)[nH]c2=O)OC(C)C1=O (stereo not given) | > 100 µM | > 100 µM | > 100 µM | > 100 µM | > 100 µM | > 100 µM | > 100 µM | – | > 100 µM | – | > 100 µM | > 100 µM | – | – | – | – | – | – | – | –
Cc1cc(I)cc(CN(C)CCCN2CCCCC2)c1O | 37 µM | 21.3 µM | 16.1 µM | 31.1 µM | > 100 µM | > 100 µM | 30.7 µM | 17.3 µM | 37.3 µM | 13.7 µM | 26.5 µM | 12.9 µM | 18.4 µM | 9.24 µM | 4.46 µM | 11.8 µM | 32.7 µM | 26.9 µM | 10.3 µM | 2.39 µM
CN(C)CCSC1=Nc2ccc(Cl)cc2C(c2ccccc2Cl)=NC1 | > 100 µM | 31.1 µM and > 100 µM | 35.4 µM and > 100 µM | 21.8 µM and > 100 µM | > 100 µM | 20.2 µM and > 100 µM | 25.2 µM and > 100 µM | 14 µM and > 100 µM | 26.9 µM and > 100 µM | 14.3 µM and > 100 µM | 31.5 µM and > 100 µM | 31.5 µM and > 100 µM | – | 13.8 µM and 58.4 µM | 15 µM and 40.6 µM | 9.23 µM and 53.4 µM | – | 6.63 µM and 43.5 µM | 12 µM and 37.8 µM | 16 µM and 68.7 µM
CN1CCN(CCCn2c(=O)c3sc4ncccc4c3n3nnc(-c4ccccc4)c23)CC1 | 16.7 µM | 11.7 µM | 9.54 µM | 12 µM | 14 µM | 15.3 µM | 13.2 µM | 8.2 µM | 15.1 µM | 7.39 µM | 14.5 µM | 12.4 µM | 8.8 µM | 5.23 µM | 2.89 µM | 5.1 µM | 7.27 µM | 7.83 µM | 6.19 µM | 5.63 µM
OCCCCCNCc1cc2cc3c(cc2c2cc(OCc4ccccc4)ccc12)OCO3 | 3.24 µM | 2.81 µM | 3 µM | 3.27 µM | 3.59 µM | 2.8 µM | 3.05 µM | 1.58 µM | 2.93 µM | 1.61 µM | 2.96 µM | 3 µM | 1.74 µM | 1.46 µM | 1.5 µM | 1.66 µM | 1.87 µM | 1.48 µM | 1.59 µM | 1.59 µM

— PubChem BioAssay (NCI)
